The record followed here is ChEMBL document CHEMBL3612016, “1,4-Disubstituted aromatic piperazines with high 5-HT2A/D2 selectivity: Quantitative structure-selectivity investigations, docking, synthesis and biological evaluation” (Bioorg Med Chem, 2015).

Structures are written as SMILES. pEC50, pKi: −log10 of the molar value.

For one assay, the target named is D(1A) dopamine receptor (Homo sapiens, UniProt P21728). Briefly: biochemical. The assay is classed as cell-based, CHO.
In assay [1] the target is 5-hydroxytryptamine receptor 2A (Homo sapiens, UniProt P28223). Put plainly: biochemical. It counts as cell-based, HEK293.
Chain of 5-hydroxytryptamine receptor 2A (P28223 whole entry): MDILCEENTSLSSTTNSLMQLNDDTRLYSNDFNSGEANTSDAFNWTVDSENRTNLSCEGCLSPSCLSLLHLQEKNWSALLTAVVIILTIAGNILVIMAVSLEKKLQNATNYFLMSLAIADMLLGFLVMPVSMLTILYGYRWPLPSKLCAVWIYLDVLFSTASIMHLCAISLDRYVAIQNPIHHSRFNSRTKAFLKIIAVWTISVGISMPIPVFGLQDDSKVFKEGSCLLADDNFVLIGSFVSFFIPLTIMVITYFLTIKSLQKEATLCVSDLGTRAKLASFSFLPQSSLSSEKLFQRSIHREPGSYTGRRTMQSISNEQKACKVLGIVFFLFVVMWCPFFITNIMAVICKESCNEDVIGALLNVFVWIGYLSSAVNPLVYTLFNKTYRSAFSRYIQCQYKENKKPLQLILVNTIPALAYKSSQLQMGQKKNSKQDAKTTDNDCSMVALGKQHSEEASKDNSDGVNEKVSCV
Description: Displacement of [3H]ketanserin from human 5-HT2A receptor expressed in HEK293 cell membranes by radioligand competition binding assay
The target in assay [2] is T1, D(2) dopamine receptor (Homo sapiens, UniProt P14416). The assay is classed as functional, cell-based, HEK293.
T1 sequence (P14416 whole entry): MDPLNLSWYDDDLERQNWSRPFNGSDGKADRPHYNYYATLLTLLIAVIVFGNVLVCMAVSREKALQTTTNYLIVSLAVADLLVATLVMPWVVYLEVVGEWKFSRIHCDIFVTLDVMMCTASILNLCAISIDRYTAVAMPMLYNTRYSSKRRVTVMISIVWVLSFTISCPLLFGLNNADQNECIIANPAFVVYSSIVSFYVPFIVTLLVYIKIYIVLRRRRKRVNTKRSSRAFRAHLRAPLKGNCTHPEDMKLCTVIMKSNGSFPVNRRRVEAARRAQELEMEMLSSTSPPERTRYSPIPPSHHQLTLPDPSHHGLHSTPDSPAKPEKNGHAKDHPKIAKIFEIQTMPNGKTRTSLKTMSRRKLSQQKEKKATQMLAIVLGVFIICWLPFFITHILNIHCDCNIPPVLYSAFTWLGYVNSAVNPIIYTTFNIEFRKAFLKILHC
For assay [3], the target named is T1, D(2) dopamine receptor. Briefly: biochemical. It counts as cell-based, CHO.
Description: Displacement of [3H]spiperone from human dopamine D2S receptor expressed in CHO cell membranes by radioligand competition binding assay
The next assay concerns the target T2, D(4) dopamine receptor (Homo sapiens, UniProt P21917).
T2 sequence (P21917 whole entry): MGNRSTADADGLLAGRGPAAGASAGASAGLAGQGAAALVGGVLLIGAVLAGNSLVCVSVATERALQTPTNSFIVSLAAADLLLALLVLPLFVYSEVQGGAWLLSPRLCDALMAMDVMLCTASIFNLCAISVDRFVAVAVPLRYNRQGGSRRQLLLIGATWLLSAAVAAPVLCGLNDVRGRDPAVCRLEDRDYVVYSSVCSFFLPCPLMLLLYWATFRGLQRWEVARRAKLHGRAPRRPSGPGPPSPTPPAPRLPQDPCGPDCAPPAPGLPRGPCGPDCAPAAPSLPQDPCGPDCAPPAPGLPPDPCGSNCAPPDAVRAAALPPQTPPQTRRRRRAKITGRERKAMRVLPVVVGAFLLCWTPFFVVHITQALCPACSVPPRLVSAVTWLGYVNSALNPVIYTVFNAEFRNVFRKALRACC
Put plainly: biochemical. The assay is classed as cell-based, CHO.

In the next assay the target is D(3) dopamine receptor (Homo sapiens, UniProt P35462). Put plainly: biochemical. It counts as cell-based, CHO.
Chain of D(3) dopamine receptor (P35462 whole entry): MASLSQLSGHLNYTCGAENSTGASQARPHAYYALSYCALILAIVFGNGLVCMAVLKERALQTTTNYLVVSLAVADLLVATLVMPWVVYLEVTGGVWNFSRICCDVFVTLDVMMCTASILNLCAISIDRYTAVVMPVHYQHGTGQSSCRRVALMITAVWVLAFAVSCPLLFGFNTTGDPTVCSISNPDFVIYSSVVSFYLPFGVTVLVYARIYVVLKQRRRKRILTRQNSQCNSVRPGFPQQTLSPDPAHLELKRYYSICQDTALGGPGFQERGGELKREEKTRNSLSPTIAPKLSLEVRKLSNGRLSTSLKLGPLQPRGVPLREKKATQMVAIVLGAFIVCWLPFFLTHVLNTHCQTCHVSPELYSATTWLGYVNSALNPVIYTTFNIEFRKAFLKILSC
The target in assay [4] is T1, D(2) dopamine receptor. It counts as cell-based. To be noted: hek293.
Description: Activity at pro-link-tagged D2S-ARMS2PK2 (unknown origin) expressed in HEK293 cells by beta-arrestin-2 recruitment assay
The target in assay [5] is T1, D(2) dopamine receptor. Put plainly: biochemical. It counts as cell-based, CHO. This is another data set of the same source.
Description: Displacement of [3H]spiperone from human dopamine D2L receptor expressed in CHO cell membranes by radioligand competition binding assay
The target in assay [6] is T1, D(2) dopamine receptor.
Description: Activity at dopamine D2S receptor (unknown origin) expressed in HEK293 cell membranes co-expressing Galpha protein subunit Galphai2 by [35S]GTPgammaS binding assay

Chain of D(1A) dopamine receptor (P21728 whole entry): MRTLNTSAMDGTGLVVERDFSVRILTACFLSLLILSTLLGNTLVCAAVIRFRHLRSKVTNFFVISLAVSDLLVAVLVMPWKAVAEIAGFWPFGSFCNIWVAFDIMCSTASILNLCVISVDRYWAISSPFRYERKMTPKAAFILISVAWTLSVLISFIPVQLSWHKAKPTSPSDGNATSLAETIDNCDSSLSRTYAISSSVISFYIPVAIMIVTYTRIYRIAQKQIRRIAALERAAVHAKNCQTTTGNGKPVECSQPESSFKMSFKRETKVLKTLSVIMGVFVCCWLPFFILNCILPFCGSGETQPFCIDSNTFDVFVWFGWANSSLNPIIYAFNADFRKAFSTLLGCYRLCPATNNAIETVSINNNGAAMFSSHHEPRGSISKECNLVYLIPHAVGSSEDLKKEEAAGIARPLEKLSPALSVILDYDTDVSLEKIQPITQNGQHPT
Description for D(1A) dopamine receptor: Displacement of [3H]SCH23990 from human dopamine D1 receptor expressed in CHO cell membranes by radioligand competition binding assay
Description for D(3) dopamine receptor: Displacement of [3H]spiperone from human dopamine D3 receptor expressed in CHO cell membranes by radioligand competition binding assay
Description for D(4) dopamine receptor: Displacement of [3H]spiperone from human dopamine D4.4 receptor expressed in CHO cell membranes by radioligand competition binding assay

Turning to `Clc1cccc(N2CCN(CCCCc3cn(-c4ccn5nccc5c4)nn3)CC2)c1Cl`, the pKi at D(1A) dopamine receptor was 6.96; in assay [1] it was 9.19; at D(2) dopamine receptor [3] it was 8.14; on D(4) dopamine receptor, 7.12; on D(3) dopamine receptor, 9.51; at D(2) dopamine receptor [5], 7.64. The same compound showed a pEC50 at D(2) dopamine receptor [2] of 6.13. The EC50 result at D(2) dopamine receptor [4] was “Not Active”.

In assay [1], `COc1ccccc1N1CCN(CCCCCNC(=O)c2cnn3ccccc23)CC1` gave a pKi of 6.89.

`COc1ccc(Cn2nnc(C(=O)NCCCCCN3CCN(c4cccc(Cl)c4Cl)CC3)c2C)cc1`: the figures for the pKi (in assay [1]; at D(2) dopamine receptor [5]) were 8.49 and 8.82, respectively.

Take `COc1ccccc1N1CCN(CCNC(=O)c2cnn3ccccc23)CC1`: the pKi in [1] was 6.24.

With `CCCc1c(C(=O)NCCCCN2CCN(c3ccccc3OC)CC2)nnn1Cc1ccccc1Br`, the pKi in [1] was 7.36; at D(2) dopamine receptor [5] it was 8.52.

With `COc1ccccc1N1CCN(CCCCNC(=O)c2nnn(Cc3ccccc3)c2C)CC1`, the pKi in assay [1] is 6.21; on D(2) dopamine receptor [5], 7.46.

Turning to `COc1ccc(Cn2nnc(C(=O)NCCCCCN3CCN(c4ccccc4OC)CC3)c2C)cc1`, the pKi is 7.03 in assay [1] and 8.57 on D(2) dopamine receptor [5].

In the case of `Clc1cccc(N2CCN(CCc3cn(-c4ccn5nccc5c4)nn3)CC2)c1Cl`, the negative-log Ki (pKi) at D(1A) dopamine receptor was 6.92; in [1], 8.15; on D(2) dopamine receptor [3] it was 8.00; at D(4) dopamine receptor it was 6.74; at D(3) dopamine receptor it was 8.66; at D(2) dopamine receptor [5] it was 7.66. In addition, the figures for the pEC50 at D(2) dopamine receptor [2] and on D(2) dopamine receptor [6] were 6.32 and 5.96, respectively. In addition, at D(2) dopamine receptor [4], the EC50 result was “Not Active”.

In assay [1], `COc1ccccc1N1CCN(CCCNC(=O)c2cc3ccccn3n2)CC1` showed a pKi of 6.25.

Turning to `CCCc1c(C(=O)NCCCCN2CCN(c3ccccc3OC)CC2)nnn1Cc1ccc(OC)cc1`, the figures for the negative logarithm of the Ki (pKi) (in [1]; on D(2) dopamine receptor [5]) were 7.54 and 8.15, respectively.

As to `COc1ccccc1N1CCN(CCCCCNC(=O)c2nnn(Cc3ccccc3)c2C)CC1`, the pKi in assay [1] was 6.85; at D(2) dopamine receptor [5], 8.60.

`COc1ccc(Cn2nnc(C(=O)NCCCCN3CCN(c4ccccc4OC)CC3)c2C)cc1` gave a pKi in assay [1] of 6.85.

Take `O=Cc1cnn2ccc(-n3cc(CCN4CCN(c5cccc(Cl)c5Cl)CC4)nn3)cc12`: the pKi was 6.80 on D(1A) dopamine receptor; 7.30 in assay [1]; 8.10 at D(2) dopamine receptor [3]; 5.52 at D(4) dopamine receptor; 7.49 on D(3) dopamine receptor; 7.96 on D(2) dopamine receptor [5]. Further, the pEC50 at D(2) dopamine receptor [2] was 6.70; at D(2) dopamine receptor [6] it was 5.45. The EC50 entry at D(2) dopamine receptor [4] was “Not Active”.

Regarding `Cc1c(C(=O)NCCCCN2CCN(c3cccc(Cl)c3Cl)CC2)nnn1Cc1ccccc1`, the values for the negative logarithm of the Ki (pKi) (in [1]; on D(2) dopamine receptor [5]) were 8.13 and 7.85, respectively.

Consider `COc1ccccc1N1CCN(CCCCNC(=O)c2nnn(Cc3ccccc3Br)c2C)CC1`, for which the pKi was 6.82 in assay [1] and 7.77 at D(2) dopamine receptor [5].

Compound `O=C(NCCCCN1CCN(c2cccc(Cl)c2Cl)CC1)c1cc2ccccc2[nH]1` showed a pKi in [1] of 7.51.

Turning to `O=Cc1cnn2ccc(-n3cc(CCCN4CCN(c5cccc(Cl)c5Cl)CC4)nn3)cc12`, the pKi was 6.68 on D(1A) dopamine receptor; 8.16 in [1]; 8.42 at D(2) dopamine receptor [3]; 6.89 on D(4) dopamine receptor; 7.92 on D(3) dopamine receptor; 8.17 at D(2) dopamine receptor [5]. Also, the pEC50 on D(2) dopamine receptor [2] is 6.72; at D(2) dopamine receptor [6], 6.02. In addition, the EC50 entry at D(2) dopamine receptor [4] is on record as “Not Active”.

Consider `COc1ccccc1N1CCN(CCCCCNC(=O)c2nnn(Cc3ccccc3Br)c2C)CC1`, for which the pKi in assay [1] was 7.39; on D(2) dopamine receptor [5] it was 9.24.

For `CCCc1c(C(=O)NCCCCN2CCN(c3ccccc3OC)CC2)nnn1Cc1ccccc1`, the pKi in assay [1] is 6.96; at D(2) dopamine receptor [5], 8.19.

Take `CCCc1c(C(=O)NCCCCCN2CCN(c3ccccc3OC)CC2)nnn1Cc1ccccc1Br`: the pKi in assay [1] is 7.21; at D(2) dopamine receptor [5], 9.04.

On to `O=Cc1cnn2ccc(-n3cc(CCCCN4CCN(c5cccc(Cl)c5Cl)CC4)nn3)cc12`, for which the negative logarithm of the Ki (pKi) on D(1A) dopamine receptor is 5.82; in [1] it was 7.82; at D(2) dopamine receptor [3], 7.29; on D(4) dopamine receptor, 5.85; on D(3) dopamine receptor it was 8.36; at D(2) dopamine receptor [5], 6.96. Moreover, the pEC50 is 6.16 on D(2) dopamine receptor [2] and 5.73 on D(2) dopamine receptor [6]. Also, the EC50 result at D(2) dopamine receptor [4] is “Not Active”.

`COc1ccccc1N1CCN(CCCCCNC(=O)c2cc3ccccn3n2)CC1` had a pKi in [1] of 6.66.

On to `COc1ccccc1N1CCN(CCc2cn(-c3ccn4ncc(C=O)c4c3)nn2)CC1`, for which the negative-log Ki (pKi) at D(1A) dopamine receptor is 6.21; in assay [1], 7.05; at D(2) dopamine receptor [3], 8.03; at D(4) dopamine receptor, 7.01; at D(3) dopamine receptor, 8.07; at D(2) dopamine receptor [5], 7.74. For the same compound, the pEC50 on D(2) dopamine receptor [2] was 6.26; on D(2) dopamine receptor [6] it was 5.36. Further, the EC50 result at D(2) dopamine receptor [4] is on record as “Not Active”.

For `Clc1cccc(N2CCN(CCCc3cn(-c4ccn5nccc5c4)nn3)CC2)c1Cl`, the pKi is 6.96 at D(1A) dopamine receptor; 8.28 in [1]; 7.27 on D(2) dopamine receptor [3]; 7.38 on D(4) dopamine receptor; 8.07 at D(3) dopamine receptor; 6.89 at D(2) dopamine receptor [5]. The compound also had a negative logarithm of the EC50 (pEC50) at D(2) dopamine receptor [2] of 5.95. The EC50 result on D(2) dopamine receptor [4] was “Not Active”.

`CCCc1c(C(=O)NCCCCN2CCN(c3cccc(Cl)c3Cl)CC2)nnn1Cc1ccccc1`: the pKi was 8.60 in assay [1] and 8.19 at D(2) dopamine receptor [5].

Take `COc1ccccc1N1CCN(CCCc2cn(-c3ccn4nccc4c3)nn2)CC1`: the pKi on D(1A) dopamine receptor was 5.77; in assay [1], 7.08; on D(2) dopamine receptor [3], 7.09; at D(4) dopamine receptor, 7.43; on D(3) dopamine receptor it was 7.11; on D(2) dopamine receptor [5] it was 6.85. The pEC50 at D(2) dopamine receptor [2] is 6.01. The EC50 entry on D(2) dopamine receptor [4] is listed as “Not Active”.
